IC50 data for 14 molecules are collected here from US8372854B2, “Pyrrolo[2,3-D]pyrimidine compounds” (Pfizer Inc., priority 2009, dated 2013).

Holding throughout (type): biochemical
The target of assay [1] is T1, JAK3 (Homo sapiens, UniProt P52333).
T1 construct: purchased Invitrogen Corporation, Madison, Wis; PV3855
T1 sequence (P52333 1-1124): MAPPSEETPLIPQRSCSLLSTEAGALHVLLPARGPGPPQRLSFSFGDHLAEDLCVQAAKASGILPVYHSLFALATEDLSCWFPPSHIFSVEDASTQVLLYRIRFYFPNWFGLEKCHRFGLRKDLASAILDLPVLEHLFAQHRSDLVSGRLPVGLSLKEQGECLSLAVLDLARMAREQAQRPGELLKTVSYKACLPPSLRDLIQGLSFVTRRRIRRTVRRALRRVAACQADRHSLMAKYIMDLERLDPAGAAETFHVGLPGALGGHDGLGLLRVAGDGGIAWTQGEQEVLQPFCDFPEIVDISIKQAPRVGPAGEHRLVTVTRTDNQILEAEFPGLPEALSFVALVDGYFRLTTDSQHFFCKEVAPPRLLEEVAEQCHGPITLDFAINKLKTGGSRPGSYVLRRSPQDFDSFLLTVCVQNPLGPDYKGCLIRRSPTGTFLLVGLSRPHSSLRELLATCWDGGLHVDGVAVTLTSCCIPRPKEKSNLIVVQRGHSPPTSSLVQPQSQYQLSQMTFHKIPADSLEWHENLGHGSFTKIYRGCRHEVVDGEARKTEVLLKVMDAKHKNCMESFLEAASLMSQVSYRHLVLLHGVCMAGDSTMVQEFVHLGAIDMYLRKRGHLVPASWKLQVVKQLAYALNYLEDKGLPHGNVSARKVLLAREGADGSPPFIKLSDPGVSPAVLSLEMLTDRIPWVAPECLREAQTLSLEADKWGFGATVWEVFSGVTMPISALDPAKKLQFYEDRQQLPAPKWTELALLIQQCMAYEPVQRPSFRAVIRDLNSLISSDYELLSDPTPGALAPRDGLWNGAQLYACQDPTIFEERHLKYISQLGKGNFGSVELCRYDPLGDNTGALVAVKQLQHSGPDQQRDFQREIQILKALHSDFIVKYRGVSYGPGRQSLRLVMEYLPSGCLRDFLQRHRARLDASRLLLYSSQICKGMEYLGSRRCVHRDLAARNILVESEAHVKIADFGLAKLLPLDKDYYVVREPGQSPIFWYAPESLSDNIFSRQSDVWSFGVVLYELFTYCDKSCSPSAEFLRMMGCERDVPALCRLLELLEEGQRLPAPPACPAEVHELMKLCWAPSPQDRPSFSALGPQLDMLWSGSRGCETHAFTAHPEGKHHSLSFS
The experiment in a line: JAK enzymatic assay (peptide mobility shift), JAK3. The conditions noted are these: recombinant JAK3 1 nM, ATP 4 μM, 1 μM JAKtide peptide, 90 minutes. An excerpt: Recombinant JAK1 (Catalog Number PV4775), JAK2 (Catalog Number PV4210) and JAK3 (Catalog Number PV3855) were purchased from (Invitrogen Corporation, Madison, Wis.). Tyk2 (His-Tyk2 (888-1182, C936S, C1142S)) used in this study was expressed and purified at Pfizer Laboratories. Adenosine 5′-triphosphate (ATP) was obtained from (Sigma Chemical Company, St. Louis, Mo.). […] Coating Reagent 3 was purchased from (Caliper Life Sciences, Hopkinton, Mass.).
(§1) A peptide mobility shift assay was used to quantify the phosphorylation of the JAKtide (JAK2 and JAK3) or the IRS-1 peptide ([…] and Tyk2). Reactions were carried out in a 384-well plate (Matrical MP-101) in a 10 μL total volume. Reaction mixtures contained 20 mM HEPES, pH 7.4, 10 mM magnesium chloride, 0.01% bovine serum albumin (BSA), 0.0005% Tween-20, ATP (4 μM for JAK2 and JAK3, 40 μM for JAK1 and 7 μM for Tyk2)), 2% DMSO and 1 μM peptide substrate (JAKtide for JAK2 and JAK3 and IRS-1 peptide for JAK1 and Tyk2). Compounds were diluted serially in 100% dimethyl sulfoxide and tested in an 11 point dose response in duplicate or quadruplicate (200 nl of compound/DMSO was added per 10 μL reaction). The reactions were initiated by the addition of enzyme to the final concentration of 2 nM JAK2, 1 nM JAK3, 12 nM Tyk2 or 20 nM JAK1. The assay was run for 240 minutes for JAK1, 150 minutes for JAK2, 90 minutes for JAK3 and 70 minutes for Tyk2. The assays were stopped at the specified times with 20 uL of 140 mM HEPES, 22.5 mM EDTA and 0.15% Coating Reagent 3. The plates were placed on a LabChip 3000 (LC3000) instrument from (Caliper Life Sciences) to measure the formation of phosphorylated peptide. Data was analyzed using Hits Well Analyzer Software from (Caliper Life Sciences) to obtain the amount of product formed.
(§2) Data was then imported into an internal application where each data point is expressed as % inhibition based on uninhibited and no enzyme controls. Dose-response data is then fit using a 4 parameter logistic equation (Equation 1) to determine an IC50.
(§3) Where max is the fitted uninhibited value, min is the fitted complete inhibition value, and s is the slope factor.

Assay [2] has as its target T2, JAK2 (Homo sapiens, UniProt O60674).
T2 construct: purchased Invitrogen Corporation, Madison, Wis; PV4210
The experiment in a line: JAK enzymatic assay (peptide mobility shift), JAK2. The conditions noted are these: recombinant JAK2 2 nM, ATP 4 μM, 1 μM JAKtide peptide, 150 minutes.
Text: (§4) Recombinant JAK1 (Catalog Number PV4775), JAK2 (Catalog Number PV4210) and JAK3 (Catalog Number PV3855) were purchased from (Invitrogen Corporation, Madison, Wis.). Tyk2 (His-Tyk2 (888-1182, C936S, C1142S)) used in this study was expressed and purified at Pfizer Laboratories. Adenosine 5′-triphosphate (ATP) was obtained from (Sigma Chemical Company, St. Louis, Mo.). The JAKtide peptide (peptide sequence, FITC-[…]) used for the JAK2 and JAK3 assays and the IRS-1 peptide (peptide sequence, 5-FAM-[…]) used for the JAK1 and Tyk2 assays were purchased from (American Peptide Company, Sunnyvale, Calif.). Coating Reagent 3 was purchased from (Caliper Life Sciences, Hopkinton, Mass.).
as §1, §2, §3

Assay [3] concerns the target T3, JAK1 (Homo sapiens, UniProt P23458).
T3 construct: purchased Invitrogen Corporation, Madison, Wis; PV4775
Kind of assay: JAK enzymatic assay (peptide mobility shift), JAK1. The conditions noted are these: recombinant JAK1 20 nM, ATP 40 μM, 1 μM IRS-1 peptide, 240 minutes.
Text: as §4, §1, §2, §3

T3 sequence (P23458 whole entry): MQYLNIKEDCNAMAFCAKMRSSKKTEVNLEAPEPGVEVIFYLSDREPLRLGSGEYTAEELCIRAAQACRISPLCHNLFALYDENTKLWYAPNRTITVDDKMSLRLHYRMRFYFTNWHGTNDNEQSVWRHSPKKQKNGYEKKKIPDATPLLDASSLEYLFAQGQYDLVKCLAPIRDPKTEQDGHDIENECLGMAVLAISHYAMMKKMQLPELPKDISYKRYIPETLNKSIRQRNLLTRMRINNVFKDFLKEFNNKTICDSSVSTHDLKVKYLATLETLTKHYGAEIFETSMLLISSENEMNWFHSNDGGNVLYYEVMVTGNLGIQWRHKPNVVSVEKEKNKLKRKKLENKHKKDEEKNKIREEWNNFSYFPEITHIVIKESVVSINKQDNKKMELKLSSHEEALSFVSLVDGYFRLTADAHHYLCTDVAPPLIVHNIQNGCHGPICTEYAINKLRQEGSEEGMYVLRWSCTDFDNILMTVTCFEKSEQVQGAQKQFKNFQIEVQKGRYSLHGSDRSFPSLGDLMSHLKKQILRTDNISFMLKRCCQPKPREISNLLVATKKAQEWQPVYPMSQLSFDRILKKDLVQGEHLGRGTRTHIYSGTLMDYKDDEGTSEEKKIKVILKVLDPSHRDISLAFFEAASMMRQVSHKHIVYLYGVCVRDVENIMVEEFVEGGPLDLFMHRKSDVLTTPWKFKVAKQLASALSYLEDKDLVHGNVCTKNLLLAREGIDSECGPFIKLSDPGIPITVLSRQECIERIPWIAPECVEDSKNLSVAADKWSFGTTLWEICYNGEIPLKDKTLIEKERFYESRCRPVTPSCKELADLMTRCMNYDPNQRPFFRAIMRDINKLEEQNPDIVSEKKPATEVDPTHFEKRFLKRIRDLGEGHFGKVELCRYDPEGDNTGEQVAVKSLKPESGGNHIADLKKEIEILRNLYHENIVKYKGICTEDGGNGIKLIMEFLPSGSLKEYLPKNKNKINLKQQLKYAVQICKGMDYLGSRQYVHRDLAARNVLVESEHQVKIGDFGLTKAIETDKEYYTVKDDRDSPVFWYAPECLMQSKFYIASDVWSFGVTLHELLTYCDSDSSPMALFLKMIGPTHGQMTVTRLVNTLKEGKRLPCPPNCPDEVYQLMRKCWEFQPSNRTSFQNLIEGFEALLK
T2 sequence (O60674 whole entry): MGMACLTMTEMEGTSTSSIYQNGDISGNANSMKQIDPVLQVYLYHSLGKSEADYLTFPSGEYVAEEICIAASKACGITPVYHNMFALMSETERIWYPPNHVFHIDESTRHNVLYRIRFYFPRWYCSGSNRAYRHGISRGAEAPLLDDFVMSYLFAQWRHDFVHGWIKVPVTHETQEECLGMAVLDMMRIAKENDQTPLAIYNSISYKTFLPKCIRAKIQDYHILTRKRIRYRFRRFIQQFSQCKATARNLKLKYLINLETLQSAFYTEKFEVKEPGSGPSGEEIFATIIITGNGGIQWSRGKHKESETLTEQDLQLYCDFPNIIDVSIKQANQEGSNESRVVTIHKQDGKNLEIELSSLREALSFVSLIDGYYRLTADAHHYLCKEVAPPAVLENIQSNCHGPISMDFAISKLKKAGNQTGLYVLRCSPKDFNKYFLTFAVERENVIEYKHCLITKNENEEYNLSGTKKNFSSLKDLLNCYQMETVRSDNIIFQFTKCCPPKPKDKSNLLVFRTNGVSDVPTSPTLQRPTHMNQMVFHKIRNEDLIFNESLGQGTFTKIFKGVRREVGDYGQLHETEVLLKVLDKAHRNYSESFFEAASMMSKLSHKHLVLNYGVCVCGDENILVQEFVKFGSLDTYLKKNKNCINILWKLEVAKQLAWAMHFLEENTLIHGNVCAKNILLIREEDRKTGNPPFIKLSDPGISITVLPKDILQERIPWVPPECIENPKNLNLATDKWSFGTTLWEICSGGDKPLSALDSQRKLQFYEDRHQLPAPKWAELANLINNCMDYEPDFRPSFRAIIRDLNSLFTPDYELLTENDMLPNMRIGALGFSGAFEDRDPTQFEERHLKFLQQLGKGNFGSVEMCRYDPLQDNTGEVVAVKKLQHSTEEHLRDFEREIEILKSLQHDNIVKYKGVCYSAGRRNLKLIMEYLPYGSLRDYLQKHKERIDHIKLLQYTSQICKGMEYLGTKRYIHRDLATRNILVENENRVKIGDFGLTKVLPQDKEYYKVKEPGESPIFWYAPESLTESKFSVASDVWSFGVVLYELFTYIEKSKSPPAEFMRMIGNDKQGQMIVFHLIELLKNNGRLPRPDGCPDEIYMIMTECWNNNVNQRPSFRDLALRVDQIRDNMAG

The term IC50 denotes the concentration that gives 50% inhibition. In the case of `Cc1ccc(NS(=O)(=O)C[C@H]2CC[C@H](N(C)c3ncnc4[nH]ccc34)CC2)cn1` [Example 30, N-(6-methylpyridin-3-yl)-1-{trans-4-[methyl(7H-pyrrolo[2,3-d]pyrimidin-4-yl)amino]cyclohexyl}-methanesulfonamide], the half-maximal inhibitory concentration (IC50) in assay [1] was determined as 221 nM; in assay [2], 47.6 nM; in assay [3] it was 16.5 nM.
On the same counts, the results for `CN(c1ncnc2[nH]ccc12)[C@H]1CC[C@H](CS(=O)(=O)NCCc2ccc(Cl)cc2)CC1` [Example 31, N-[2-(4-chlorophenyl)ethyl]-1-{trans-4-[methyl(7H-pyrrolo[2,3-d]pyrimidin-4-yl)amino]cyclohexyl}-methanesulfonamide] are 154 nM, 19 nM and 3.67 nM.
For `CN(c1ncnc2[nH]ccc12)[C@H]1CC[C@H](CS(=O)(=O)N[C@H]2C[C@@H]2c2ccccc2)CC1` [Example 32, 1-{trans-4-[methyl(7H-pyrrolo[2,3-d]pyrimidin-4-yl)amino]cyclohexyl}-N-[(1S,2R)-2-phenylcyclopropyl]-methanesulfonamide], the IC50 turned out to be 144 nM in assay [1], 23.6 nM in assay [2] and 4.34 nM in assay [3].
In the case of `CN(c1ncnc2[nH]ccc12)[C@H]1CC[C@H](CS(=O)(=O)NCCc2cccc(F)c2)CC1` [Example 33, N-[2-(3-fluorophenyl)ethyl]-1-{trans-4-[methyl(7H-pyrrolo[2,3-d]pyrimidin-4-yl)amino]cyclohexyl}-methanesulfonamide], the IC50 in assay [1] was found to be 192 nM; in assay [2] it was 24.2 nM; in assay [3] it was 4.95 nM.
On the same counts, the results for `Cc1cc2cc(CNS(=O)(=O)C[C@H]3CC[C@H](N(C)c4ncnc5[nH]ccc45)CC3)ccc2[nH]1` [Example 34, N-[(2-methyl-1H-indol-5-yl)methyl]-1-{trans-4-[methyl(7H-pyrrolo[2,3-d]-pyrimidin-4-yl)amino]-cyclohexyl}-methanesulfonamide] are 224 nM, 24.7 nM and 6.76 nM.
In the case of `CN(Cc1cccnc1)S(=O)(=O)C[C@H]1CC[C@H](N(C)c2ncnc3[nH]ccc23)CC1` [Example 35, N-methyl-1-{trans-4-[methyl(7H-pyrrolo[2,3-d]-pyrimidin-4-yl)amino]-cyclohexyl}-N-(pyridin-3-ylmethyl)-methanesulfonamide], the IC50 in assay [1] is 622 nM; in assay [2], 76.1 nM; in assay [3], 6.85 nM.
For `CN(c1ncnc2[nH]ccc12)[C@H]1CC[C@H](CS(=O)(=O)NCCc2cccc(Cl)c2)CC1` [Example 36, N-[2-(3-chlorophenyl)ethyl]-1-{trans-4-[methyl(7H-pyrrolo[2,3-d]pyrimidin-4-yl)amino]cyclohexyl}-methanesulfonamide] the same measures were 294 nM, 41.4 nM and 7.7 nM.
As for `CN(c1ncnc2[nH]ccc12)[C@H]1CC[C@H](CS(=O)(=O)N[C@H]2CC[C@H](C(C)(C)O)CC2)CC1` [Example 37, N-[trans-4-(1-hydroxy-1-methylethyl)cyclohexyl]-1-{trans-4-[methyl(7H-pyrrolo[2,3-d]pyrimidin-4-yl)amino]cyclohexyl}-methanesulfonamide], the concentration for half-maximal inhibition (IC50) in assay [1] was 212 nM; in assay [2], 33.3 nM; in assay [3], 8.73 nM.
In the case of `CC(C)c1ccc(CCNS(=O)(=O)C[C@H]2CC[C@H](N(C)c3ncnc4[nH]ccc34)CC2)c(F)c1` [Example 38, N-[2-(2-fluoro-4-isopropylphenyl)ethyl]-1-{trans-4-[methyl(7H-pyrrolo[2,3-d]pyrimidin-4-yl)amino]cyclohexyl}-methanesulfonamide], the IC50 came out at 145 nM in assay [1], 55.4 nM in assay [2] and 9.13 nM in assay [3].
For the molecule `CN(c1ncnc2[nH]ccc12)[C@H]1CC[C@H](CS(=O)(=O)NCC(O)c2ccc(F)c(F)c2)CC1` (stereo partly drawn) [Example 39, N-[2-(3,4-difluorophenyl)-2-hydroxyethyl]-1-{trans-4-[methyl(7H-pyrrolo[2,3-d]pyrimidin-4-yl)amino]-cyclohexyl}-methanesulfonamide], the 50% inhibitory concentration (IC50) in assay [1] was 240 nM; in assay [2] it was 30.6 nM; in assay [3] it was 9.79 nM.
On the same counts, the results for `COc1ccccc1CCCNS(=O)(=O)C[C@H]1CC[C@H](N(C)c2ncnc3[nH]ccc23)CC1` [Example 40, N-[3-(2-methoxyphenyl)-propyl]-1-{trans-4-[methyl(7H-pyrrolo[2,3-d]-pyrimidin-4-yl)amino]-cyclohexyl}-methanesulfonamide] are 208 nM, 29.8 nM and 10.7 nM.
For `CN(c1ncnc2[nH]ccc12)[C@H]1CC[C@H](CS(=O)(=O)NC2CC(NC(=O)OC(C)(C)C)C2)CC1` (stereo partly drawn) [Example 41, tert-butyl (3-{[({trans-4-[methyl(7H-pyrrolo[2,3-d]-pyrimidin-4-yl)amino]-cyclohexyl}methyl)sulfonyl]amino}cyclobutyl)-carbamate] the same measures were 292 nM, 123 nM and 11.6 nM.
Turning to `CN(c1ncnc2[nH]ccc12)[C@H]1CC[C@H](CS(=O)(=O)NCCc2ccc(Cl)c(Cl)c2)CC1` [Example 42, N-[2-(3,4-dichlorophenyl)-ethyl]-1-{trans-4-[methyl-(7H-pyrrolo[2,3-d]pyrimidin-4-yl)amino]cyclohexyl}-methanesulfonamide], the 50% inhibitory concentration (IC50) in assay [1] is 427 nM; in assay [2], 55.7 nM; in assay [3], 14.5 nM.
On the same counts, the results for `CN(Cc1cnccn1)S(=O)(=O)C[C@H]1CC[C@H](N(C)c2ncnc3[nH]ccc23)CC1` [Example 43, N-methyl-1-{trans-4-[methyl(7H-pyrrolo[2,3-d]-pyrimidin-4-yl)amino]-cyclohexyl}-N-(pyrazin-2-ylmethyl)-methanesulfonamide] are 517 nM, 53.2 nM and 14.9 nM.
